The text below walks through data of patent US9855257B2, “4-alkynyl imidazole derivative and medicine comprising same as active ingredient” (KAKEN PHARMACEUTICAL CO., LTD., priority 2013, dated 2018).

The term IC50 denotes the point on the concentration scale where inhibition reaches its midpoint.

One assay concerns the target T1, rat EP4 receptor (Rattus norvegicus, UniProt P43114).
T1 construct: its translated region was integrated into the expression vector pShooter (Invitrogen); expressed in transfected cells; host or cells: COS-7 cells (Cercopithecus aethiops kidney), transiently co-transfected with ratEP4-pShooter and a CRE-LUC reporter vector
Put plainly: Rat EP4 receptor antagonistic action by the reporter assay method. In kind it is cell-based. Particulars: COS-7 cells expressing rat EP4 receptor, CRE-LUC reporter, PGE2 1×10^−8 mol/L; geometric mean of three cases; read-out: Intensity of EP4 Receptor Antagonistic Activity IC50. Here is the method:
Test for Evaluating the Rat EP4 Receptor Antagonistic Action by the Reporter Assay Method
The first step was the cloning of the rat EP4 receptor. Total RNA was prepared from the kidney extracted from rats. With the total RNA used as a template, the rat EP4 receptor gene was cloned by RT-PCR and its translated region was integrated into the expression vector pShooter (Invitrogen) to prepare a rat EP4 receptor expressing vector (ratEP4-pShooter).
In the next step, rat EP4 receptor expressing cells for use in the reporter assay were prepared. COS-7 cells (derived from the kidney of Cercopithecus aethiops) were cultured in Dulbecco's Modified Eagle Medium (DMEM) (supplemented with 10% fetal bovine serum) in a 75-cm^2 cell culture flask. After the cells proliferated to a subconfluent state, the medium was removed and rinsed with phosphate buffered physiological saline (PBS). Trypsin-EDTA and a growth medium were used to recover the cells, which were then centrifuged. The supernatant was removed and the cells were suspended in DMEM. The cell suspension was seeded on a 96-well plate at a density of 2×10^4 cells/100 μL/well and cultured. The DMEM was mixed with Plus reagent, Lipofectamine 2000, the rat EP4 receptor expressing vector (ratEP4-pShooter) and a CRE-LUC reporter vector (CLONTECH) to prepare a transfection solution. Three hours after the seeding of the cells, 50 μL of the medium was removed and 50 μL/well of the transfection solution was added, followed by culture overnight. Negative control cells were prepared using pShooter in place of the receptor expressing vector. The cells were seeded on a 96-well plate for reporter assay and cultured.
The medium on the 96-well plate was removed and a test compound was added in an amount of 50 μL/well. After ca. 30-min culture, a PGE2 solution (2×10^−8 mol/L) was added in an amount of 50 μL/well (final concentration of PGE2: 1×10^−8 mol/L). As a PGE2-free control, there were provided wells to which a test medium had been added in an amount of 50 μL/well. About three hours later, the medium was removed and reporter assay was performed in accordance with the protocol accompanying the Steady-Glo Luciferase Assay System kit. Luminous intensity was measured with a microplate reader (Fusion-FPα, PerkinElmer) and EP4 receptor antagonistic activity (%) was determined by the following calculation formula: EP4 receptor antagonistic activity (%)=[1−(RLU(A,X)−RLU(0))/(RLU(PGE2)−RLU(0))]×100 RLU(A,X): Luminous intensity expressed in relative luminescence units (RLU) for the case where the test compound (A) X (mol/L) and PGE2 10^−8 mol/L were both added; RLU(PGE2): Luminous intensity for the case where only PGE2 10^−8 mol/L was added; RLU(0): Luminous intensity for the case where neither test compound nor PGE2 was added.
In addition, a dose-response curve was plotted from the EP4 receptor antagonistic activities at varying concentrations of each test compound and using the following approximation formula, the IC50 (the concentration of the test compound required to inhibit the PGE2 inducing activity by 50%) was calculated to determine the intensity of the compound's EP4 receptor antagonistic activity. The results are shown in Table 2: Y=Bottom+(Top−Bottom)/{1+10^(Log IC50−Log X)} Bottom: 0 Top: 100 X: Concentration of the test compound (mol/L) Y: EP4 receptor antagonistic activity (%)

The test system of assay [1] is Adjuvant Induced Arthritis in Rats. Description: Anti-inflammatory and analgesic effects on adjuvant induced arthritis in rats. In kind it is in vivo, rat. More on the design: Percent Effectiveness: scale not given: direction of the effect not stated beside the values. Particulars: Lewis male rats, oral 0.3 mg/kg once a day, day 9 to day 17 after adjuvant; for Percent paw edema suppression: measured at day 18, means of 8˜10 cases; for Percent Effectiveness: pain threshold at day 18, 8˜10 cases. As for the experimental part:
Test for Evaluating Anti-Inflammatory and Analgesic Effects on Adjuvant Induced Arthritis in Rats
The animals were Lewis male rats (6-week old). An adjuvant solution (2 mg/mL) was administered intradermally to the footpad of the left hind leg of each animal at a dose of 0.1 mL to create an arthritis model. Paw volume was measured with a paw volume meter (PLETHYSMOMETER, Ugo Basile Model 7141). For evaluation of pain thresholds, a probe fitted to the sensor site of Pressure Application Measurement (PAM, Ugo Basile Model 38500) was used to turn the foot sole of a rat upward (dorsiflexion) until it gave an indication of pain or discomfort (vocalization) and the load being applied was measured. Eight days after the treatment with the adjuvant, the paw volume and pain threshold of each treated foot were measured and the animals were grouped for oral administration of each test compound (0.3 mg/kg) which was performed for nine days on a once-a-day schedule starting at day 9 and ending at day 17 after the treatment. At day 18 after the treatment, the paw volume and pain threshold of each […] foot were measured.
The anti-inflammatory effect of the test compound was confirmed using the percent paw edema suppression as an indicator. Percent paw edema suppression (%)=[(paw volume change in the control group−paw volume in each treatment group)/(paw volume change in the control group−paw volume change in the non-treatment group)]×100
As for the analgesic effect, the animals in the test compound group that had nociceptive thresholds greater than [(the mean nociceptive threshold of the control group)+2×standard deviation] were found “effective animals” and the percent effectiveness of each compound was calculated.

Assay [2] has as its system Carrageenin Induced Hyperalgesia in Rats. Description: Analgesic effect on carrageenin induced hyperalgesia in rats. Particulars: Rattus norvegicus, 2 h; SD male rats, oral 10 mg/5 mL/kg six hours after carrageenin, nociceptive threshold (Randall-Selitto) two hours after administration; 5˜7 cases; read-out: Percent Effectiveness. In kind it is in vivo. As for the experimental part:
Test for Evaluating Analgesic Effect on Carrageenin Induced Hyperalgesia in Rats
The animals were SD male rats (5-week old). Before treatment with carrageenin (or distilled water), the rats were measured for nociceptive thresholds in their right hind leg by the Randall-Selitto method and divided into a carrageenin treatment group and a non-treatment group to provide uniformity in nociceptive threshold. The carrageenin treatment group was given a 1 w/v % carrageenin solution and the non-treatment group given distilled water, each administered subcutaneously to the footpad of the right hind leg at a dose of 0.1 mL. Five hours after the treatment, the nociceptive thresholds were measured and the individuals with decreased thresholds were selected and grouped such that there was no inter-group difference in threshold. Six hours after the treatment, each test compound was orally administered at a dose of 10 mg/5 mL/kg. The control group was administered 0.5% methylcellulose. Two hours after the administration of the test compound (8 hours after the treatment), the nociceptive threshold was measured. The animals in the test compound group that had nociceptive thresholds greater than [(the mean nociceptive threshold of the control group)+2×standard deviation] were found “effective animals” and the percent effectiveness of each compound was calculated.

T1 sequence (P43114 whole entry): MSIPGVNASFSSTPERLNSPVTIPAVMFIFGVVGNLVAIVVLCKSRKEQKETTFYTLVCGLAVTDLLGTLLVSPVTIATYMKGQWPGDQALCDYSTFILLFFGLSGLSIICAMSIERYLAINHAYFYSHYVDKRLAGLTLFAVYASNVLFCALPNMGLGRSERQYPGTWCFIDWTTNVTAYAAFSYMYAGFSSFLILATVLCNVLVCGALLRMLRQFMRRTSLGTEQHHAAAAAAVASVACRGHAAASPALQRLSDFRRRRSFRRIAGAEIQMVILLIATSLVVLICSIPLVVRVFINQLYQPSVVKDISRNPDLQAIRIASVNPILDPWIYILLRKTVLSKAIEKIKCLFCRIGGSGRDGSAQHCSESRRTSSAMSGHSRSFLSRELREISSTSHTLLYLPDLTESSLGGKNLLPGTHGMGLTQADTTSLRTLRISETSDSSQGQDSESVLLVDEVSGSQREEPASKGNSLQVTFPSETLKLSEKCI

On to `CC(C)(O)C#Cc1nc(Cl)n(Cc2ccc(C(F)(F)F)cc2)c1C(=O)NC[C@H]1CC[C@H](C(=O)O)CC1` [Compound 1, trans-4-({2-Chloro-4-(3-hydroxy-3-methyl-1-butyn-1-yl)-1-[4-(trifluoromethyl)benzyl]-1H-imidazole-5-carboxamido}methyl)cyclohexanecarboxylic acid], for which the IC50 on rat EP4 receptor worked out at 23.8 nM. For the same compound, in assay [1], the “Percent paw edema suppression” value amounted to 54% and the “Percent Effectiveness” value was 30%.
The corresponding values for `CC(C)(O)C#Cc1nc(Cl)n(Cc2ccc(C(F)(F)F)cc2)c1C(=O)NCc1ccc(C(=O)O)cc1` [Compound 2, 4-({2-Chloro-4-(3-hydroxy-3-methyl-1-butyn-1-yl)-1-[4-(trifluoromethyl)benzyl]-1H-imidazole-5-carboxamido}methyl)benzoic acid] are 14.1 nM, 21% and 38%.
On to `CC(C)(O)C#Cc1nc(Cl)n(Cc2ccc(C(F)(F)F)cc2)c1C(=O)NC1(c2ccc(C(=O)O)cc2)CC1` [Compound 4], for which the IC50 on rat EP4 receptor came out at 3 nM.
The same measure, in the same setting: then `O=C(NCC1CCC(C(=O)O)CC1)c1c(C#CC2(O)CCCC2)nc(Cl)n1Cc1ccc(C(F)(F)F)cc1` (stereo not shown) [Compound 16], with 7.3 nM; and `CC(C)(O)C#Cc1nc(C2CC2)n(Cc2ccc(C(F)(F)F)cc2)c1C(=O)NCc1ccc(C(=O)O)cc1` [Compound 20, 4-({2-cyclopropyl-4-(3-hydroxy-3-methyl-1-butyn-1-yl)-1-[4-(trifluoromethyl)benzyl]-1H-imidazole-5-carboxamido}methyl)benzoic acid], with 64.6 nM.
For the compound `Cc1ccc(Cn2c(Cl)nc(C#CC(C)(C)O)c2C(=O)NC[C@H]2CC[C@H](C(=O)O)CC2)cc1` [Compound 21, trans-4-{[2-Chloro-4-(3-hydroxy-3-methyl-1-butyn-1-yl)-1-(4-methylbenzyl)-1H-imidazole-5-carboxamido]methyl}cyclohexanecarboxylic acid], the IC50 on rat EP4 receptor was determined as 26.4 nM. In assay [1], the “Percent paw edema suppression” value was 53% and the “Percent Effectiveness” value is recorded as 20%.
In the case of `COC(C)(C)C#Cc1nc(Cl)n(Cc2ccc(C(F)(F)F)cc2)c1C(=O)NCc1ccc(C(=O)O)cc1` [Compound 41], the IC50 on rat EP4 receptor was found to be 8.4 nM.
`CC(C)(O)C#Cc1nc(Cl)n(CCOc2ccc(Cl)cc2)c1C(=O)NCc1ccc(C(=O)O)cc1` [Compound 44]: on rat EP4 receptor, the IC50 was determined as 17.5 nM. Further, the responders at 10 mg/kg in assay [2] was 50%.
The corresponding values for `COC(C)(C)C#Cc1nc(Cl)n(CCOc2ccc(Cl)cc2)c1C(=O)NCc1ccc(C(=O)O)cc1` [Compound 45] are 5.1 nM and 50%.
Regarding `COC(C)(C)C#Cc1nc(Cl)n(Cc2ccc(OC(F)(F)F)cc2)c1C(=O)N[C@@H](C)c1ccc(C(=O)O)cc1` [Compound 50], the IC50 at rat EP4 receptor was found to be 1.1 nM.
Consider `COC(C)(C)C#Cc1nc(Cl)n(Cc2ccc(OC(F)F)cc2)c1C(=O)NCC1CCC(C(=O)O)CC1` (stereo not shown) [Compound 51], for which the IC50 on rat EP4 receptor stood at 7.9 nM.
For `COC(C)(C)C#Cc1nc(Cl)n(Cc2ccc(OC(F)F)cc2)c1C(=O)NCc1ccc(C(=O)O)cc1` [Compound 52], the IC50 on rat EP4 receptor came out at 7.9 nM.
Still for that read-out and setting: then `COC(C)(C)C#Cc1nc(Cl)n(Cc2cccc(OC(F)F)c2)c1C(=O)NCc1ccc(C(=O)O)cc1` [Compound 54], with 16.1 nM.
Still for that read-out and setting: then `COC(C)(C)C#Cc1nc(Cl)n(Cc2ccc(F)cc2)c1C(=O)NCc1ccc(C(=O)O)cc1` [Compound 56, 4-{[2-Chloro-1-(4-fluorobenzyl)-4-(3-methoxy-3-methyl-1-butyn-1-yl)-1H-imidazole-5-carboxamido]methyl}benzoic acid], with 49.9 nM; and `COC(C)(C)C#Cc1nc(Cl)n(Cc2ccc(C(F)F)cc2)c1C(=O)NC[C@H]1CC[C@H](C(=O)O)CC1` [Compound 60, trans-4-({2-Chloro-1-[4-(difluoromethyl)benzyl]-4-(3-methoxy-3-methyl-1-butyn-1-yl)-1H-imidazole-5-carboxamido}methyl)cyclohexanecarboxylic acid], with 10.2 nM.
On to `CC(C)(C#Cc1nc(Cl)n(CCOc2ccc(Cl)cc2)c1C(=O)NC[C@H]1CC[C@H](C(=O)O)CC1)CO` [Compound 61, Trans-4-({2-chloro-1-[2-(4-chlorophenoxy)ethyl]-4-(4-hydroxy-3,3-dimethyl-1-butyn-1-yl)-1H-imidazole-5-carboxamido}methyl)cyclohexanecarboxylic acid], for which the IC50 at rat EP4 receptor amounted to 26.6 nM.
Same read-out and setting: as for `COC(C)(C)C#Cc1nc(C(F)F)n(CCOc2ccc(Cl)cc2)c1C(=O)NCc1ccc(C(=O)O)cc1` [Compound 64], the figure is 26.1 nM.
Turning to `COC(C)(C)C#Cc1nc(Cl)n(Cc2ccc(C)cc2)c1C(=O)NC1(c2ccc(C(=O)O)cc2)CC1` [Compound 67, 4-(1-{2-Chloro-4-(3-methoxy-3-methyl-1-butyn-1-yl)-1-(4-methylbenzyl)-1H-imidazole-5-carboxamido}cyclopropyl)benzoic acid], the IC50 on rat EP4 receptor came out at 2.1 nM. Also, the responders at 10 mg/kg in assay [2] came out at 100%.
As for `Cc1ccc(Cn2c(Cl)nc(C#CC(C)(C)O)c2C(=O)NC2(c3ccc(C(=O)O)cc3)CC2)cc1` [Compound 68], the IC50 on rat EP4 receptor turned out to be 6.1 nM.
